Laboratory results reported in US20210177778A1, “EXOSOME PRODUCTION PROMOTER” (DAICEL CORPORATION, priority 2017, published 2021).

System: Human neuroblastoma-derived SH-SY5Y cell
Assay: Number of exosome particles released by SH-SY5Y cells after sphingolipid addition (qNano)
Type: cell-based
Details: 10 μM sphingolipid, 24 hours, particles per mg cell protein
Description: Human neuroblastoma-derived SH-SY5Y cell was used as the cultured cell. After the cell was inoculated in a 6-well plate at 2.5×10^5 cells/well together with a medium (50% Ham's F12/50% E-MEM) and cultured at 37° C. for 24 hours, the animal ceramide (Cer), sphingomyelin (SM), or glucosylceramide (GuCer) sphingolipid was each added to each well. The sphingolipid was suspended in a serum-free medium (50% Ham's F12/50% E-MEM) containing 3% bovine serum albumin (BSA), and added so that the concentration in the well was 10 μM. The control was performed when the added amount of sphingolipid was 0 μM. […]
The exosome recovered by the centrifugation method was suspended in a HEPES/KCl buffer, and then the number of particles was measured with a nanoparticle analyzer qNano (Izon Inc.). The measured value was expressed as the number of particles per protein mass (mg) of the derived cell calculated by the BCA method. […]
Experimental Example 2 was performed under the same conditions as in the above Experimental Example 1 except that the konjac-derived glucosylceramide (kGluCer) or the konjac-derived ceramide (kCer) are used as the sphingolipid and sphingolipids having concentrations of 5 μM, 7.5 μM, or 10 μM, respectively, were added to the cell in place of a concentration of 0 μM (control), and the number of exosome particles was measured.

Row | Structure (SMILES) | number of exosome particles compared to the control
1 | CCCCCCCCCCCCC/C=C/[C@@H](O)[C@H](CO)NC(=O)CCCCC [C6 ceramide, N-hexanoyl-D-erythro-sphingosine] | further promoted
2 | CCCCCCCCCCCCC/C=C/[C@@H](O)[C@H](CO)NC(=O)CCCCCCCCCCCCCCCCC [C18 ceramide, N-stearoyl-D-erythro-sphingosine] | further promoted
